Assay results from patent US20170049908A1 (priority 2015, published 2017).
pEC50: −log10 of the molar value. Like-named read-outs stand apart in the source and are kept apart here.

What was measured:
Ramos cells [1] = details: for pEC50: read-out: EC50 in picoM, Ramos, Table 3, agents and agent-linker intermediates, 3 days incubation
SU-DHL-8 cells [2] = details: for pEC50: read-out: EC50 in picoM, SUDHL8, Table 3, agents and agent-linker intermediates, 3 days incubation
[3] = system: HL60, U937, MV411, Hut78, H929, and RAMOS; test: Cytotoxic activity on six human blood cancer cell types with and without ATRA (overall statements); type: cell-based; details: all cell lines tested except RAMOS
Experimental: Agent loading (e.g., “n” of Formula (I)) was determined to be about 4.
In this study and as determined by antibody cell staining, and with the exception of HL-60 cells, all cells expressed various levels of cell surface CD38 prior to ATRA addition.

Ramos cells [4] = test: cells; details: Homo sapiens, 72 h, read-out: EC50 in picoM, Ramos
SU-DHL-8 cells [5] = test: cells; details: Homo sapiens, SU-DHL-8, 72 h, read-out: EC50 in picoM, SUDHL8

| SMILES | pEC50 (Ramos cells [4]) | pEC50 (SU-DHL-8 cells [5]) | further results |
| --- | --- | --- | --- |
| C[C@]12CC[C@H](OC3OC[C@H](N)[C@@H](O)[C@@H]3O)C=C1CC[C@@H]1[C@@H]2CC[C@]2(C)[C@@H](c3ccc(=O)oc3)CC[C@]12O (stereo partly drawn) [CEN09-106, Scillarenin-4-amino-4-deoxy-L-xylopyranoside] | – | – | pEC50 (Ramos cells [1]): 8.72; pEC50 (SU-DHL-8 cells [2]): 8.68 |
| CC1=C(/C=C/C(C)=C/C=C/C(C)=C/C(=O)O)C(C)(C)CCC1 [ATRA, all-trans-retinoic acid] | – | – | effect of ATRA alone on cell growth [3]: slowed cell growth |
| C[C@]12CC[C@H](O)C[C@H]1CC[C@@H]1[C@@H]2CC[C@]2(C)[C@@H](c3ccc(=O)oc3)CC[C@]12O [Bufalin, reference compound] | 8.14 | 7.80 | cytotoxic effect in Ramos cells, in words (Ramos cells [1]): modestly active; cytotoxic effect in SU-DHL-8 cells, in words (SU-DHL-8 cells [2]): modestly active |
| C[C@]12CC[C@H](OC(=O)NCCCNCCCN)C[C@H]1CC[C@@H]1[C@@H]2CC[C@]2(C)[C@H](c3ccc(=O)oc3)CC[C@]12O [CEN-373, 5-{(1S,2S,5S,7R,10R,11S,14S,15R)-5-[3-(3-Aminopropylamino)propylaminocarbonyloxy]-11-hydroxy-2,15-dimethyltetracyclo[8.7.0.02, 7.011, 15]heptadec-14-yl}-2-pyranone] | 8.40 | 8.23 | – |
| C[C@]1(OC(=O)NCCCN2CCN(CCCN)CC2)CC[C@@]2(C)[C@H](CC[C@@H]3[C@@H]2CC[C@]2(C)[C@@](C)(C4=CC(=O)OC4)CC[C@]32O)C1 [CEN-381, 4-(3-{(1S,2S,5S,7R,10R,11S,14R,15R)-11-Hydroxy-2,5,14,15-tetramethyl-14-(5-oxo-2H-fur-3-yl)tetracyclo[8.7.0.02, 7.011, 15]heptadec-5-yloxycarbonylamino}propyl)-1-(3-aminopropyl)piperazine] | < 7.30 | < 7.30 | – |
| C[C@]1(OC(=O)NCCCN2CCN(CCCN)CC2)CC[C@@]2(C)[C@H](CC[C@@H]3[C@@H]2CC[C@]2(C)[C@](C)(c4ccc(=O)oc4)CC[C@]32O)C1 [CEN-371, 4-(3-{(1S,2S,5S,7R,10R,11S,14S,15R)-11-Hydroxy-2,5,14,15-tetramethyl-14-(6-oxo-3-pyranyl)tetracyclo[8 0.7.0.02, 7.011, 15]heptadec-5-yloxycarbonylamino}propyl)-1-(3-aminopropyl)piperazine] | – | – | cytotoxic effect in Ramos cells, in words (Ramos cells [1]; FIG. 4 legend, unconjugated antibody, linker-agent and agents): modestly active; pEC50 (Ramos cells [1]): 8.11; cytotoxic effect in SU-DHL-8 cells, in words (SU-DHL-8 cells [2]; FIG. 2 and FIG. 3 legends, unconjugated antibody, linker-agent and agents): modestly active; pEC50 (SU-DHL-8 cells [2]): 7.96 |
| CN(CCCN)CCCNC(=O)O[C@H]1CC[C@@]2(C)[C@H](CC[C@@H]3[C@@H]2CC[C@]2(C)[C@H](c4ccc(=O)oc4)CC[C@]32O)C1 [CEN-372, 5-[(1S,2S,5S,7R,10R,11S,14S,15R)-5-{3-[N-Methyl(3-aminopropyl)amino]propylaminocarbonyloxy}-11-hydroxy-2,15-dimethyltetracyclo[8.7.0.02, 7.011, 15]heptadec-14-yl]-2-pyranone] | 8.44 | 8.36 | – |
| C[C@]12CC[C@H](O)C[C@H]1CC[C@@H]1[C@@H]2CC[C@]2(C)[C@@H](C3=CC(=O)OC3)CC[C@]12O [Digitoxigenin, reference compound] | < 7.30 | < 7.30 | – |
